Measured values as given in PubChem BioAssay (NCI).
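Tested at 5 concentrations; 48 h exposure; 96-well plates; endpoints linearly interpolated, else capped at highest concentration. GI50 = concentration required for 50% inhibition of growth. TGI: total growth inhibition.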

Tests used:
Test in all cases: growth of human tumour cells (NCI), 48 h
CAKI-1 renal = tested on: CAKI-1 renal
HOP-92 NSCLC = tested on: HOP-92 NSCLC
NCI-H23 lung = tested on: NCI-H23 lung
NCI-H226 lung = tested on: NCI-H226 lung
LOX IMVI melanoma = tested on: LOX IMVI melanoma
SNB-75 CNS = tested on: SNB-75 CNS
SF-268 CNS = tested on: SF-268 CNS
SK-OV-3 ovarian = tested on: SK-OV-3 ovarian
DU-145 prostate = tested on: DU-145 prostate
MDA-MB-435 = tested on: MDA-MB-435

Compound | TGI (CAKI-1 renal) [µM] | TGI (HOP-92 NSCLC) [µM] | TGI (NCI-H23 lung) [µM] | TGI (NCI-H226 lung) [µM] | TGI (LOX IMVI melanoma) [µM] | TGI (SNB-75 CNS) [µM] | TGI (SF-268 CNS) [µM] | TGI (SK-OV-3 ovarian) [µM] | GI50 (CAKI-1 renal) [µM] | GI50 (HOP-92 NSCLC) [µM] | GI50 (NCI-H23 lung) [µM] | GI50 (DU-145 prostate) [µM] | TGI (DU-145 prostate) [µM] | GI50 (NCI-H226 lung) [µM] | GI50 (LOX IMVI melanoma) [µM] | GI50 (SNB-75 CNS) [µM] | GI50 (SF-268 CNS) [µM] | GI50 (SK-OV-3 ovarian) [µM] | GI50 (MDA-MB-435) [µM] | TGI (MDA-MB-435) [µM]
CCN(CC)c1ccc(N=Nc2ccc(-c3nc4cccn(C)c-4n3)cc2)cc1 | 41.5 | 33 | 34.7 | 43.8 | 6.42 | 38.9 | 50.1 | 43.5 | – | – | – | – | – | – | – | – | – | – | – | –
CC1=C(C(=O)Nc2ccccc2)C(c2cc(Cl)cc(Cl)c2)C(C(=O)Nc2ccccc2)=C(C)N1 | 31.6 | – | 19.1 | 31.6 | 24.6 | 34 | 15.3 | 98.7 | – | – | – | – | – | – | – | – | – | – | – | –
Clc1ccc(OCc2nnc3n2N=C(c2ccccc2)CS3)c(Cl)c1 | > 100 | > 100 | > 100 | > 100 | 5.87 | 19.6 | > 100 | > 100 | – | – | – | – | – | – | – | – | – | – | – | –
CCOC(=O)C1=C(C(=O)OCC)C2(c3ccccc3)N(O1)c1ccccc1C2(C)C (stereo not drawn) | > 100 | – | > 100 | > 100 | – | 89.5 | > 100 | 95.2 | – | – | – | – | – | – | – | – | – | – | – | –
O=C1C=C(Nc2ccc(S(=O)(=O)Nc3ncccn3)cc2)c2ccccc2C1=O | 89.1 | 94 | 34.1 | 56.8 | 30 | 59.4 | 59.7 | 90.7 | – | – | – | – | – | – | – | – | – | – | – | –
COc1cc(CN(c2ccc(C)cc2)C2OC(=O)c3ccccc32)cc(OC)c1OC (stereo not drawn) | > 100 | > 100 | – | > 19.7 | > 100 | > 100 | > 100 | > 57.9 | 0.472 | 0.449 | 0.427 | 0.491 | > 76.6 | 0.507 | 0.635 | 0.285 | 1.97 | 0.472 | – | –
COC(=O)N/N=C(\C)C(CN(C)C)C(c1ccccc1)c1c(O)c2ccccc2oc1=O (stereo not drawn) | > 100 | > 100 | > 100 | > 100 | > 100 | > 100 | > 100 | > 100 | – | – | – | – | – | – | – | – | – | – | – | –
C/C(O)=C(\N=O)C(=O)NCc1ccccc1 | > 100 | > 100 | > 100 | > 100 | 36.6 | > 100 | > 100 | > 100 | – | – | – | – | – | – | – | – | – | – | – | –
COc1cccc(NC(=O)c2sc3nc4c(cc3c2N)C(O)CCC4)c1 (stereo not drawn) | > 100 | 23 | > 100 | > 100 | > 100 | 24.7 | > 55 | > 71.3 | 0.538 | 0.169 | 0.442 | 0.292 | > 29.2 | 0.669 | 0.766 | 0.17 | 0.496 | 0.317 | – | –
CCC[CH2][Sn]([CH2]CCC)([O]C(=O)c1cccc(F)c1F)[O]C(=O)c1cccc(F)c1F | – | 2.57 | 1.89 | 2.52 | 1.74 | 2.1 | 2.15 | 4.49 | – | 1.3 | 0.614 | – | – | 1.25 | 0.519 | 0.874 | 0.838 | 2.41 | – | –
CCCCCCCCCCOC(=O)c1cc[n+](C)cc1 | 30.4 | 29.2 | 35 | 32.7 | 32.6 | 34.3 | 35.3 | 29.6 | – | – | – | – | – | – | – | – | – | – | – | –
c1ccc(C2CC(c3ccc4ccccc4c3)=Nc3ccccc3S2)cc1 (stereo not drawn) | – | – | 28.9 | 42.7 | 29.5 | 40.4 | 31.1 | 80.9 | – | – | – | – | – | – | – | – | – | – | – | –
COc1ccc2c(c1)CCc1c(CO)c(COC(=O)NC(C)C)n(C)c1-2 | 77.8 | 22.5 | 22.1 | 14.6 | 25.4 | > 27.3 | 63.8 | 73.3 | – | – | – | – | – | – | – | – | – | – | – | –
N#C/C(=C\c1ccccc1)C(NO)Nc1ccccc1 (stereo not drawn) | > 100 | > 100 | > 100 | > 100 | – | > 100 | > 100 | > 100 | – | – | – | – | – | – | – | – | – | – | – | –
CC1=C(C#N)C(/C=C(\Cl)c2ccc(F)cc2)C(C#N)=C(C)N1 | > 100 | – | > 100 | > 100 | > 100 | > 100 | > 100 | > 100 | > 100 | – | > 100 | > 100 | > 100 | > 100 | > 100 | 86.3 | > 100 | > 100 | > 100 | > 100
CCN(CC)c1ccc(/C=N/NC(=O)CSc2nc3ccccc3c(=O)n2Cc2ccc(S(N)(=O)=O)cc2)c(O)c1 | > 100 | – | > 100 | > 100 | 10.5 | > 100 | > 100 | > 100 | 1.02 | – | 1.96 | 0.944 | > 100 | 0.895 | 0.387 | 2.86 | 0.766 | 1.32 | 2.07 | > 100
Cc1ccccc1N=Nc1c(-c2ccccc2)nn(C(=O)CC(=O)Nc2cccc(Cl)c2)c1-c1ccccc1 | > 100 | > 100 | > 31.6 | > 31.6 | 25.3 | > 31.6 | > 31.6 | > 31.6 | – | – | – | – | – | – | – | – | – | – | – | –
CCCCN1C(=O)/C(=c2\sc3n(c2=O)C2C(NN=3)N(CC)C(=O)N2CC)c2ccccc21 (stereo not drawn) | – | 4.58 | > 35 | – | – | 1.56 | 4.71 | 5.89 | – | 1.07 | 1.77 | – | – | – | – | 0.258 | 0.959 | 0.911 | 0.255 | 0.655
COc1cc2nc(-c3cccc4cccnc34)nc(NC3CCN(Cc4ccccc4)CC3)c2cc1OC | 2.98 | 3.36 | 3.11 | – | – | 3.56 | 2.98 | 3.22 | 1.37 | 1.59 | 1.37 | 1.28 | 2.59 | – | – | 1.84 | 1.14 | 1.56 | 1.56 | 3.08
